The source made the active and inactive calls. The calls are words filed in the database; no cut-off is given here.
Experiments:
[1] = molecular target: T1, Programmed cell death protein 1/Programmed cell death 1 ligand 1 (Homo sapiens, UniProt Q9NZQ7); assay: Inhibition of human PD1/PDL1 protein-protein interaction by HTRF assay; type: protein-complex assay
[2] = molecular target: T1, Programmed cell death protein 1/Programmed cell death 1 ligand 1; assay: Inhibition of human C-terminal Ig-Fc-tagged PD1 (Leu25 to Gln167 residues) expressed in HEK293 cells/human C-terminal epitope-His-tagged PDL1 (Phe19 to Arg238 residues) expressed in HEK293 cells protein-protein interaction preincubated for 15 mins with PDL1 followed by PD1 addition and measured after 15 mins by APC-labeled anti-His antibody/Eu-labeled anti-human IgG based HTRF assay; type: cell-based
[3] = Cmax in Sprague-Dawley rat at 1 mg/kg, iv by LC-MS/MS analysis; type: ADME, organism-based; set-up: dose 1 mg/kg, route intravenous; conditions: in vivo
[4] = AUC (0 to t) in Sprague-Dawley rat at 1 mg/kg, iv by LC-MS/MS analysis; type: ADME, organism-based; conditions: in vivo
[5] = Clearance in Sprague-Dawley rat at 1 mg/kg, iv by LC-MS/MS analysis; type: ADME, organism-based; conditions: in vivo
[6] = Volume of distribution at steady state in Sprague-Dawley rat at 1 mg/kg, iv by LC-MS/MS analysis; type: ADME, organism-based; conditions: in vivo, read-out: Vdss
[7] = Clearance in Sprague-Dawley rat at 10 mg/kg, po by LC-MS/MS analysis; type: ADME, organism-based; conditions: in vivo
B16-F10 [8] = assay: Antitumor activity against mouse B16/F10 cells implanted in BALB/c mouse assessed as tumor weight at 100 mg/kg, ig administered once daily via gavage for 15 days measured 24 hrs post-last dose (reference value: 0.84 +/- 0.32 g); type: functional
B16-F10 [9] = assay: Antitumor activity against mouse B16/F10 cells implanted in BALB/c mouse assessed as tumor growth inhibition at 25 mg/kg, ig administered once daily via gavage for 15 days relative to control; type: functional; conditions: B16-F10, po, 360 h, read-out: TGI
[10] = Toxicity in mouse B16/F10 cells implanted […] mouse assessed as change in spleen weight at 25 to 100 mg/kg, ig administered once daily via gavage for 15 days measured 24 hrs post-last dose; type: organism-based; conditions: in vivo, po
H22 = assay: Antitumor activity against […] cells xenografted in BALB/c mouse assessed as tumor growth inhibition at 25 mg/kg, ip administered once daily 14 days relative to control; type: functional; conditions: 336 h, read-out: TGI
[11] = molecular target: Programmed cell death protein 1/Programmed cell death 1 ligand 1 (Mus musculus, UniProt Q9EP73); assay: Inhibition of mouse biotin-labelled C-terminal Fc-fused/Avi-tagged PD1/Fc-fused PDL1 expressed in HEK293 cells protein-protein interaction measured after 2 hrs by ELISA; type: cell-based
[12] = Toxicity in mouse B16/F10 cells implanted […] mouse assessed as histological changes in kidney at 25 to 100 mg/kg, ig administered once daily via gavage for 15 days measured 24 hrs post-last dose by H and E staining based microscopic analysis; type: organism-based; conditions: in vivo, po
Mus musculus [13] = assay: Immunostimulatory activity in mouse B16/F10 cells implanted […] mouse assessed as activation of tumor microenvironment by measuring increase in tumor infiltrating lymphocytes at 25 to 100 mg/kg, ig administered once daily via gavage for 15 days measured 24 hrs post last dose by H and E staining-based microscopic method; type: functional, organism-based
Mus musculus [14] = assay: Immunostimulatory activity in mouse B16/F10 cells implanted […] mouse assessed as increase in activation of tumor-microenvironment mediated helper T cells in tumor by measuring CD3-positive/CD4-positive cell population at 100 mg/kg, ig administered once daily via gavage for 15 days measured 24 hrs post-last dose by immunostaining based flow cytometry (reference value: 6.15%); type: functional
Mus musculus [15] = assay: Immunostimulatory activity in mouse B16/F10 cells implanted […] mouse assessed as increase in activation of tumor-microenvironment mediated activated cytotoxic T cells in tumor by measuring CD3-positive/CD8-positive cell population at 100 mg/kg, ig administered once daily via gavage for 15 days measured 24 hrs post-last dose by immunostaining based flow cytometry (reference value: 4.18%); type: functional
Mus musculus [16] = assay: Immunostimulatory activity in mouse B16/F10 cells implanted BALB/c mouse assessed as increase in activation of tumor-microenvironment mediated helper T cells in tumor by measuring CD3-positive/CD4-positive cell population at 50 mg/kg, ig administered once daily via gavage for 15 days measured 24 hrs post-last dose by immunostaining based flow cytometry (reference value: 6.15%); type: functional
Mus musculus [17] = assay: Immunostimulatory activity in mouse B16/F10 cells implanted BALB/c mouse assessed as increase in activation of tumor-microenvironment mediated activated cytotoxic T cells in tumor by measuring CD3-positive cell population at 50 mg/kg, ig administered once daily via gavage for 15 days measured 24 hrs post-last dose by immunostaining based flow cytometry (reference value: 20.8%); type: functional
Mus musculus [18] = assay: Immunostimulatory activity in mouse B16/F10 cells implanted […] mouse assessed as increase in activation of tumor-microenvironment mediated helper T cells in tumor by measuring CD4-positive cell population at 25 mg/kg, ig administered once daily via gavage for 15 days measured 24 hrs post-last dose by immunostaining based flow cytometry (reference value: 4.95%); type: functional
Mus musculus [19] = assay: Immunostimulatory activity in mouse B16/F10 cells implanted BALB/c mouse assessed as increase in activation of tumor-microenvironment mediated activated cytotoxic T cells in tumor by measuring CD8-positive cell population at 25 mg/kg, ig administered once daily via gavage for 15 days measured 24 hrs post-last dose by immunostaining based flow cytometry (reference value: 2.2%); type: functional
Mus musculus [20] = assay: Effect on activated cytotoxic T cell population in mouse B16/F10 cells implanted […] mouse assessed as CD3-positive cell population in spleen at 100 mg/kg, ig administered once daily via gavage for 15 days measured 24 hrs post-last dose by immunostaining based flow cytometry (reference value: 27.5 %); type: organism-based; conditions: in vivo, po
Mus musculus [21] = assay: Effect on spleen helper T cell population in mouse B16/F10 cells implanted […] mouse assessed as CD4-positive cell population at 50 mg/kg, ig administered once daily via gavage for 15 days measured 24 hrs post-last dose by immunostaining based flow cytometry (reference value: 1.47 %); type: ADME, organism-based; conditions: in vivo, po
Mus musculus [22] = assay: Effect on activated cytotoxic T cell population in mouse B16/F10 cells implanted […] mouse assessed as spleen cell population at 50 mg/kg, ig administered once daily via gavage for 15 days measured 24 hrs post-last dose by immunostaining based flow cytometry (reference value: 57.9 %); type: organism-based; conditions: in vivo, po
Mus musculus [23] = assay: Effect on spleen helper T cell population in mouse B16/F10 cells implanted […] mouse assessed as CD4-positive cell population at 25 mg/kg, ig administered once daily via gavage for 15 days measured 24 hrs post-last dose by immunostaining based flow cytometry (reference value: 1.47 %); type: ADME, organism-based; conditions: in vivo, po
Mus musculus [24] = assay: Effect on activated cytotoxic T cell population in mouse B16/F10 cells implanted […] mouse assessed as CD3-positive cell population in spleen at 25 mg/kg, ig administered once daily via gavage for 15 days measured 24 hrs post-last dose by immunostaining based flow cytometry (reference value: 27.5 %); type: organism-based; conditions: in vivo, po
[25] = AUC (0 to infinity) in Sprague-Dawley rat at 1 mg/kg, iv by LC-MS/MS analysis; type: ADME, organism-based; set-up: dose 1 mg/kg, time infinity, route intravenous; conditions: in vivo
[26] = AUC (0 to infinity) in Sprague-Dawley rat at 10 mg/kg, po by LC-MS/MS analysis; type: ADME, organism-based; set-up: dose 10 mg/kg, time infinity, route oral; conditions: in vivo

T1 sequence (Q15116 whole entry): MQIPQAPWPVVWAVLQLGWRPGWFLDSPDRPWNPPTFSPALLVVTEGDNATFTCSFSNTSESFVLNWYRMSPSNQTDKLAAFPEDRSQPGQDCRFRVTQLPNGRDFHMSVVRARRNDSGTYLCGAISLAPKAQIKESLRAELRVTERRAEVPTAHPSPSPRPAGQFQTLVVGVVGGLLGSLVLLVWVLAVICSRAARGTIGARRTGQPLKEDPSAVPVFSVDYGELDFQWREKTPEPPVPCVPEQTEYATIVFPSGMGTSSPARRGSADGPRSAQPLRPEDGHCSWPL
T1 sequence (Q9NZQ7 whole entry): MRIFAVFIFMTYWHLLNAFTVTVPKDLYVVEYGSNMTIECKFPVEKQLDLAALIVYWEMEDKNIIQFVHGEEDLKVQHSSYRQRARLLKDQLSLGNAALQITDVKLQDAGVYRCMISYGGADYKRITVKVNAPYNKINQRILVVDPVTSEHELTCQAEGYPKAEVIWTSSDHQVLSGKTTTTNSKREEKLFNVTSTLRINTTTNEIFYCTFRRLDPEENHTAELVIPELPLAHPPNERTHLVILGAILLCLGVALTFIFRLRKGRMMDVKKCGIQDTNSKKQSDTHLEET
Chain of Programmed cell death protein 1/Programmed cell death 1 ligand 1 (Mus musculus, UniProt Q9EP73) (Q9EP73 whole entry, the tested form may be a part): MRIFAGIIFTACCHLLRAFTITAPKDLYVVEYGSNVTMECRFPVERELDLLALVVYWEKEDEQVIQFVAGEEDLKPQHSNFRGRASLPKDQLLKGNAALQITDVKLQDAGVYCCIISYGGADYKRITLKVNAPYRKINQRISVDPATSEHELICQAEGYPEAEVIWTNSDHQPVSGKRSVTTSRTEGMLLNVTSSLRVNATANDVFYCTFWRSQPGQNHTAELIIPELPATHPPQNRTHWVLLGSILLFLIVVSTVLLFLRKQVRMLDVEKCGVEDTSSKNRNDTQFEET
Chain of Programmed cell death protein 1/Programmed cell death 1 ligand 1 (Mus musculus, UniProt Q9EP73) (Q02242 whole entry, further chain, the tested form may be a part): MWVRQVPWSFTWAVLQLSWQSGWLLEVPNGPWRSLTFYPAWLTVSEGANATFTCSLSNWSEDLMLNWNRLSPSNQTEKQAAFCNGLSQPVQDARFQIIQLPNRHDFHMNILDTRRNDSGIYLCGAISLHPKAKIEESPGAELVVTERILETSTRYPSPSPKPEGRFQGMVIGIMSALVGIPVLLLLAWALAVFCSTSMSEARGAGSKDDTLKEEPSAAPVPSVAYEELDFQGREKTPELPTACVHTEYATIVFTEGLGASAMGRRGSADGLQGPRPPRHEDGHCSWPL

SMILES: Cc1c(COc2cc(OCc3cccc(C#N)c3)c(CNC(C)(C)C(=O)O)cc2Cl)cccc1-c1ccccc1
- IC50 [1]: 12.5 nM
- IC50 [2]: 12.5 nM
- Cmax [3]: 1750 ng/mL
- AUC(0-t) [4]: 967 ng·h/mL
- clearance [5]: 15 mL/min/kg
- Vd [6]: 2.1 L/kg
- CL/F [7]: 385 mL/min/kg
- Activity (B16-F10 [8]): 0.16 g
- inhibition in vivo at 25 mg/kg (B16-F10 [9]): 51.1%
- Activity [10]: Non-Toxic
- inhibition in vivo at 25 mg/kg (H22): 76.5%
- IC50 [11]: > 1000 nM
- Activity [12]: Non-Toxic
- Activity (Mus musculus [13]): Active
- Activity (Mus musculus [14]): 13.8%
- Activity (Mus musculus [15]): 23%
- Activity (Mus musculus [16]): 11.7%
- Activity (Mus musculus [17]): 14.5%
- Activity (Mus musculus [18]): 4.36%
- Activity (Mus musculus [19]): 10.2%
- Activity (Mus musculus [20]): 25.4%
- Activity (Mus musculus [21]): 1.18%
- Activity (Mus musculus [22]): 55.4%
- Activity (Mus musculus [23]): 1.94%
- Activity (Mus musculus [24]): 24.3%
- AUC(0-inf) [25]: 1050 ng·h/mL
- AUC(0-inf) [26]: 520 ng·h/mL

Reference: ChEMBL document CHEMBL4619786, “Discovery of Novel Resorcinol Dibenzyl Ethers Targeting the Programmed Cell Death-1/Programmed Cell Death-Ligand 1 Interaction as Potential Anticancer Agents” (J Med Chem, 2020)
